Assay results: US20050143450A1, “Alkyl PCDF as a treatment for prostate cancer” (priority 2002, published 2005)
Read-outs that look alike come from different tables or passages of the source.

Experiments:
[1] = system: androgen-responsive probasin gene promoter (pPB); type: cell-based, human; details: ZR-75 cells, pPB alone
Procedure: ZR-75 human breast cancer and LNCaP human prostate cancer cells were obtained from American Type Culture Collection (Manassas, Va.) and were maintained in RPMI 1640 medium supplemented with 10% FBS, 1% antibiotic/antimycotic solution, 1.5 g/L sodium bicarbonate, and 10 mM HEPES, final pH of 7.4. Cells were seeded at 2.75×10^5 per 22-mm well in DME-F12 without phenol red, supplemented with 2.5% charcoal-stripped fetal bovine serum (FBS). After 24 h, cells were transfected using Lipofectamine and Plus reagents (Invitrogen) according to manufacturer's instructions. LNCaP and ZR-75 cells were transfected with 500 ng/well of either reporter plasmid, and 250 ng/well of pcDNA3.1-β-gal (Invitrogen) as the internal control. In addition, ZR-75 cells were transfected with 500 ng hAR. Twenty-four hours after treatment, cells were harvested by scraping with 200 μL/well of reporter lysis buffer. Lysates were centrifuged at 40,000 g and luciferase and β-galactosidase activity was assayed with 30 μL of the supernatant extract per sample using a Lumicount luminometer (PerkinElmer, Boston, Mass.). Luciferase activity was normalized to β-galactosidase activity for each transfection well.

[2] = system: AR; assay: AR protein levels in LNCaP cells by Western blot; type: cell-based, human; details: 6 h; for AR protein levels, compound alone: DHT 10 nM, E2 10 nM, TCDD 10 nM, 6-MCDF 2 μM, HPTE 10 μM
Procedure: Cells were harvested 6 h after treatment using 200 μL/22-mm well of ice cold lysis buffer (50 mM HEPES, pH 7.5, 500 mM NaCl, 10% (v/v) glycerol, 1% (v/v) Triton-X 100, 1.5 mM MgCl2, 1 mM EGTA) (McDougal et al., 2001). Lysates were centrifuged at 40,000 g, and supernatant was collected as extract. Whole cell extracts (50 μg/sample) were separated by electrophoresis on a tiered 7.5% (top)/12.5% (bottom) SDS-polyacrylamide gel and transferred to PVDF membrane (Bio-Rad, Richmond, Calif.). The membrane was blocked with 5% milk (m/v) in tris-buffered saline 0.05% Tween (TBST). Membranes were incubated with primary antibodies for AR (sc-7305), cyclin D1 (sc-718), or p27 (sc-528) (each from Santa Cruz Biotechnology, Santa Cruz, Calif.) at 1:1000 in 5% milk/TBST for 3 h. Membranes were washed twice in TBST. Horseradish peroxidase (HRP)-conjugated secondary antibodies were applied at 1:5000 in 5% milk/TBST for 1 h. After two TBST washes, PVDF-bounded antibodies were detected using a chemiluminescence kit (Western Lightning, PerkinElmer), ImageTek-H film (American X-Ray and Medical Supply, Rancho Cordova, Calif.) and an autoprocessor (Hope Macro-Med, Warminster, Pa.). Quantitation of the Western blot was performed using a Sharp JX-330 scanner (Sharp, Mahwah, N.J.) and Zero-D software (Scanalytics, Billerica, Mass.).

[3] = system: LNCaP cells; type: cell-based, human; details: six days; for growth of LNCaP cells in the presence of DHT: 10 nM DHT; for proliferation of LNCaP cells: absence of DHT, TCDD 1-100 nM
Procedure: After trypsinization and low-speed centrifugation, LNCaP cells were resuspended and counted using a Coulter cell counter (Beckman Coulter, Fullerton, Calif.). Cells were seeded at a density of 5×10^4/35-mm well using DME-F12 without phenol red, supplemented with 2.5% charcoal-stripped fetal bovine serum (FBS). Twenty-four hours after seeding, initial treatment was applied and then subsequently reapplied with fresh medium every two days until harvesting by trypsinization. Cells were counted after harvesting using a Coulter counter.

[4] = system: LNCaP prostate cancer cells; type: cell-based, human; details: 48 h
Procedure: Cells were analyzed on a FACS Calibur (Becton Dickinson, San Jose, Calif.) flow cytometer, equipped with a 15 mW air-cooled argon laser, using CellQuest (Becton Dickinson) acquisition software. Propidium iodide (PI) fluorescence was collected through a 585/42-nm bandpass filter, and list mode data were acquired on a minimum of 12,000 single cells defined by a dot plot of PI-width versus PI-area. Data analysis was performed in ModFit LT (Verity Software House, Topsham, Me.) using PI-width versus PI-area to exclude cell aggregates.
The effects of TCDD on cell cycle progression was also determined in LNCaP cells treated with 1.0, 10 and 100 nM TCDD for 48 h followed by FACS analysis (Table 1).

[5] = system: ethoxyresorufin O-deethylase (EROD) activity in 22Rv1 cells; assay: Induction of EROD activity in 22Rv1 cells; type: cell-based; details: 24-hr treatment
Procedure: An androgen responsive prostate cancer cell line 22Rv1 and an androgen nonresponsive prostate cancer cell line PC3 were treated with TCDD and ethoxyresorufin O-deethylase (EROD) activity was measured.

Structure (SMILES) | reporter gene activity [1] | AR levels in combination with DHT compared to DHT alone [2] | AR protein levels, compound alone [2] | growth of LNCaP cells in the presence of DHT [3] | proliferation of LNCaP cells [3] | cells in S phase ([4]; 1.0, 10 and 100 nM) | percentage of cells in G0/G1 ([4]; 1.0, 10 and 100 nM) | Percent Distribution G0/G1 ([4]; 10^−7 M) | Percent Distribution G2/M ([4]; 10^−7 M) | Percent Distribution S ([4]; 10^−7 M) | Percent Distribution G0/G1 ([4]; 10^−8 M) | Percent Distribution G2/M ([4]; 10^−8 M) | Percent Distribution S ([4]; 10^−8 M) | Percent Distribution G0/G1 ([4]; 10^−9 M) | Percent Distribution G2/M ([4]; 10^−9 M) | Percent Distribution S ([4]; 10^−9 M) | EROD activity induction [5] | AR levels in combination with E2 compared to E2 alone [2]
Cc1cc(Cl)cc2c1oc1cc(Cl)cc(Cl)c12 [6-MCDF, 6-methyl-1,3,8-trichlorodibenzofuran] | did not activate | significant decrease | did not significantly affect | inhibited growth | growth inhibition was also observed | – | – | – | – | – | – | – | – | – | – | – | – | –
Clc1cc2c(cc1Cl)Oc1cc(Cl)c(Cl)cc1O2 [TCDD, 2,3,7,8-tetrachloro-p-dioxin] | did not activate | significant decrease | did not significantly affect | inhibited growth | significantly inhibited | decrease | small but significant increase | 77.500 ± 0.451% | 8.943 ± 0.471% | 13.567 ± 0.176% | 75.367 ± 0.636% | 10.300 ± 0.153% | 14.3 ± 0.666% | 74.300 ± 0.751% | 10.633 ± 0.376% | 14.7 ± 0.520% | induced EROD activity | decreased
